Holding throughout (assay type): cell-based
In data set [1] the target is T1, human Nav1.5 (late current) (Homo sapiens, UniProt Q14524).
T1 construct: host or cells: HEK293
Briefly: Nav1.5 Late Current Assay (QPatch HT whole-cell patch clamp, 30 nM ATX-II). Particulars: HEK293 cells stably expressing human Nav1.5, pH 7.3, late current with 30 nM ATX-II, read-out: percent inhibition hNav1.5 Late (5 uM). How it is done: (§1) In vitro Na+ Current Inhibition Assays were performed by Eurofins Discovery (St Charles, MO). All compound functional activity determinations were determined through electrophysiological analyses of Na+ currents in HEK293 cells expressing a stably transfected Na+ channel (human Nav1.1, 1.2, 1.3, 1.5, 1.6, 1.7, or 1.8). After harvesting with Accutase cells are maintained in serum free medium at room temperature prior to electrophysiological recording utilizing the QPatch HT automated whole-cell patch-clamp platform (Sophion Bioscience, Woburn MA). Stock solution aliquots of the test compound are prepared in DMSO at 300× the final assay concentrations, and stored at −20° C. until the day of assay. On the day of the assay, an aliquot of the stock solution is thawed and diluted into external solution (137 mM NaCl, 4 mM KCl, 1 mM MgCl2, 1.8 mM CaCl2, 10 mM HEPES, 10 mM Glucose (pH 7.3, titrated with 10M NaOH) to make final test concentrations. A final concentration of 0.33% DMSO is maintained for each concentration of the assay compounds. Internal solution for recordings of Na+ consist consists of 100 mM CsF, 45 mM CsCl, 5 mM NaCl, 10 mM HEPES, 5 mM EGTA (pH 7.3, titrated with 1M CsOH).
Onset and steady state induction of late Nav1.5 current was measured using a pulse pattern, repeated every 5 sec, consisting of a hyperpolarizing pulse to −120 mV for a 200 ms duration, depolarization to −15 mV amplitude for a 40 ms duration, followed by step to 40 mV for 200 ms and finally a 100 ms ramp (1.2 V/s) to a holding potential of −80 mV. Each concentration of compound was applied for 5 minutes. The assay was performed at room temperature. After establishing vehicle control condition, all further addition of external solutions contain 30 nM ATX-II to activate late currents. Each concentration of compound was also co-applied with 30 nM ATXII to estimate the Nav1.5 late current inhibition. […]. ATXII was used as the agonist positive control and was tested concurrently with the test compound. Ranolazine was used as the positive control and was tested concurrently with the test compound.
Nav1.5 late current was measured as the total charge flowing through the Nav1.5 channels (area under the curve) 5 ms after the Nav1.5 peak current till the end of the test pulse and as charge at their maxima during the ramp. Individual cell results were normalized to their respective vehicle control and the results were averaged. The sodium current was assessed in 30 nM ATXII as vehicle control conditions and then at the end of each five (5) minute compound application in the presence of 30 nM ATXII. Individual cell result was normalized to 30 nM ATXII vehicle control amplitude and the mean±SEM calculated for each compound concentration.
For orientation: Patch clamp records ionic current or voltage across a cell membrane.

For a further data set, the target named is T2, human Nav1.6 (Homo sapiens, UniProt Q9UQD0).
T2 construct: host or cells: HEK293
Briefly: Two pulse assay protocol, Nav1.6. Particulars: peak current. How it is done: as §1
(§2) Two pulse assay protocol for human Nav1.1, 1.2, 1.3, 1.5, 1.6, 1.7, and 1.8 channels. Mammalian cultured cells expressing the indicated human Nav1.1, 1.2, 1.3, 1.5, 1.6, 1.7 or 1.8 channels were assayed using the The QPatch HT (Sophion Bioscience, Woburn MA) automated system with an intracellular solution (mM) of 100 CsF, 45 CsCl, 5 NaCl, 10 HEPES, 5 EGTA (pH 7.3, titrated with 1M CsOH) and extracellular solution (mM) of 137 NaCl, 4 KCl, 1 MgCl2, 1.8 CaCl2, 10 HEPES, 10 Glucose (pH 7.3, titrated with 10M NaOH). Onset and steady state block of the sodium channel was measured using a pulse pattern, repeated every 20 seconds (s) from a holding potential of −120 mV for 100 ms, and then pulsed to 0 mV for 500 ms to inactivate the Na channels and facilitate inactivated state-dependent binding of the test compounds. The cell membranes were then stepped back to −120 mV for 10 ms to recover from inactivation into resting or closed state (channels with test compound bound to them will not recover from inactivation and will not open) before stepping to 0 mV for 50 ms (pulse 2) to measure Na channels that are available to open. Peak current was measured during the step to 0 mV at pulse 1 and 2 to measure tonic and state-dependent inhibition. Compound activities were assessed by dividing post current amplitude (at the end of each five (5) minute compound application) by the vehicle control amplitude and the mean calculated for each compound concentration. Tetracaine was used as a positive control and was tested concurrently with the test compounds. Current amplitudes in excess of 200 pA at the control stage were analyzed. The amplitude of the current was calculated by measuring the difference between the peak inward current on stepping to 0 mV (i.e. peak of the current) and remaining current at the end of the step. The current was assessed in vehicle control conditions and then at the end of each five (5) minute compound application.

The target of the next data set is T3, human Nav1.7 (Homo sapiens, UniProt Q15858).
T3 construct: host or cells: HEK293
Briefly: Two pulse assay protocol, Nav1.7. As to conditions: peak current. How it is done: as §1, §2

Data set [2] has as its target T4, human Nav1.5 (pulse 1, tonic inhibition) (Homo sapiens, UniProt Q14524).
T4 construct: host or cells: HEK293
Briefly: Two pulse assay protocol, Nav1.5. Particulars: HEK293 cells stably expressing human Nav1.5, pH 7.3, peak current, pulse 1 (tonic), read-out: percent inhibition hNav1.5, Pulse 1 (5 uM). How it is done:
as §1, §2

Data set [3] concerns the target T5, human Nav1.5 (pulse 2, state-dependent inhibition) (Homo sapiens, UniProt Q14524).
T5 construct: host or cells: HEK293
Briefly: Two pulse assay protocol, Nav1.5. Particulars: HEK293 cells stably expressing human Nav1.5, pH 7.3, peak current, pulse 2 (state-dependent), read-out: percent inhibition hNav1.5, Pulse 2 (5 uM). How it is done:
as §1, §2

The next data set addresses T6, human Nav1.8 (Homo sapiens, UniProt Q9Y5Y9).
T6 construct: host or cells: HEK293
Description: Two pulse assay protocol, Nav1.8. Particulars: peak current. How it is done: as §1, §2

The mark [4] stands for this setting: pulse 1 (tonic), read-out: percent inhibition hNav1.6, Pulse 1 (5 uM).
The mark [5] stands for this setting: pulse 2 (state-dependent), read-out: percent inhibition hNav1.6, Pulse 2 (5 uM).
Where [6] appears, read: pulse 1 (tonic), read-out: percent inhibition hNav1.7, Pulse 1 (5 uM).
The mark [7] stands for this setting: pulse 2 (state-dependent), read-out: percent inhibition hNav1.7, Pulse 2 (5 uM).
[8] abbreviates: pulse 1 (tonic), read-out: percent inhibition hNav1.8, Pulse 1 (5 uM).
Setting [9] is: pulse 2 (state-dependent), read-out: percent inhibition hNav1.8, Pulse 2 (5 uM).

Each structure is given as a SMILES string. Read-outs that look alike come from different tables or passages of the source.

Broadly, the inhibition is the share of the control response that was lost under treatment.

T3 sequence (Q15858 whole entry): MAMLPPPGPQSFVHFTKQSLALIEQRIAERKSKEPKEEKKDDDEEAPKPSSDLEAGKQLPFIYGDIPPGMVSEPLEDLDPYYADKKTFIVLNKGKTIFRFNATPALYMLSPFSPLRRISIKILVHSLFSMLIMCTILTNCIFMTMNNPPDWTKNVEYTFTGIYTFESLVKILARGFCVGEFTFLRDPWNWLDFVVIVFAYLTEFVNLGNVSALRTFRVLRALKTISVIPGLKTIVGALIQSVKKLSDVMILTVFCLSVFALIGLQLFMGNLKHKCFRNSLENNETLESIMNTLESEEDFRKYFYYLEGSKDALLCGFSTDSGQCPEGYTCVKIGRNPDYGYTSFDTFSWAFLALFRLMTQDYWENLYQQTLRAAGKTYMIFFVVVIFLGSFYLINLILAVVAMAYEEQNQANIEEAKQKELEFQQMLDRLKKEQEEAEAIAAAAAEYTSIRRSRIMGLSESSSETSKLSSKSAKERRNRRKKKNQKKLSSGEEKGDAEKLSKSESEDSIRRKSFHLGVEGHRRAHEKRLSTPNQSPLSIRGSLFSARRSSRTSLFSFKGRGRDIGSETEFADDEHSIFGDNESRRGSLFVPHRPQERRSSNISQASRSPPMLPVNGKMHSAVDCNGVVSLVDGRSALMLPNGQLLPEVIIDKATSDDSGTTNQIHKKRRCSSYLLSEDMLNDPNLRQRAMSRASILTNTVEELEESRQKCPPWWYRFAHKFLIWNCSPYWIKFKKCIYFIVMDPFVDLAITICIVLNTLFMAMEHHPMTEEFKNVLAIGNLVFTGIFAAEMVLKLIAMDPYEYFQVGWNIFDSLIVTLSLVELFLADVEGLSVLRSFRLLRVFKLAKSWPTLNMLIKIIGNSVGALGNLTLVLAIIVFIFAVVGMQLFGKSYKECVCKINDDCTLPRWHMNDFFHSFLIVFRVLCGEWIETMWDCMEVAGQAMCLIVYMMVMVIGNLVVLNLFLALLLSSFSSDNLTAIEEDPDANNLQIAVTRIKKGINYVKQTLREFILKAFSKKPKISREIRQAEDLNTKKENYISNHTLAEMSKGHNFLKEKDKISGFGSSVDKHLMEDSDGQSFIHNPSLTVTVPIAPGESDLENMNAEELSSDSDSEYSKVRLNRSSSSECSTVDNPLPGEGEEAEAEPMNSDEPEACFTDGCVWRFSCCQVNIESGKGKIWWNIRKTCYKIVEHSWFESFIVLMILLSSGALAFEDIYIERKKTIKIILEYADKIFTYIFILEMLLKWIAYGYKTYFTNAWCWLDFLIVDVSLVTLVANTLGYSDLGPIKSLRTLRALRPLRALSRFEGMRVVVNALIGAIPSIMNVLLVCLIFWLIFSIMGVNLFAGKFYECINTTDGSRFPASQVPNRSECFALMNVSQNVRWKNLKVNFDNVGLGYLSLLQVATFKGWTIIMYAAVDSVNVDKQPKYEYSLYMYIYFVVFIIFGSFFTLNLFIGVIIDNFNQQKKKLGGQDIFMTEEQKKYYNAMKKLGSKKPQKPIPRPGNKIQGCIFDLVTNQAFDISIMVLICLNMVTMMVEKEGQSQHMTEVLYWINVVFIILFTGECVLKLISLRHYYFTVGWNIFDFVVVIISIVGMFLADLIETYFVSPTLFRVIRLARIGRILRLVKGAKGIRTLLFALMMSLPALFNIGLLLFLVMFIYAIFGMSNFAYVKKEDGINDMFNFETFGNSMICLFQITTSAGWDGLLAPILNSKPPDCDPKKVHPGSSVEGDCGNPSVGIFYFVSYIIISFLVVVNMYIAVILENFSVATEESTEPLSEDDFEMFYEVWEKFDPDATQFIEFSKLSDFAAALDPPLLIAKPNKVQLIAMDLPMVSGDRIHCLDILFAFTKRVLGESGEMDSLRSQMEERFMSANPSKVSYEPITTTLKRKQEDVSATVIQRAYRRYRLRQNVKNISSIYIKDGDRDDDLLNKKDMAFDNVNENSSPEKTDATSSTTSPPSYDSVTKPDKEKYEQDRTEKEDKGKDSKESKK
T1 sequence (Q14524 whole entry): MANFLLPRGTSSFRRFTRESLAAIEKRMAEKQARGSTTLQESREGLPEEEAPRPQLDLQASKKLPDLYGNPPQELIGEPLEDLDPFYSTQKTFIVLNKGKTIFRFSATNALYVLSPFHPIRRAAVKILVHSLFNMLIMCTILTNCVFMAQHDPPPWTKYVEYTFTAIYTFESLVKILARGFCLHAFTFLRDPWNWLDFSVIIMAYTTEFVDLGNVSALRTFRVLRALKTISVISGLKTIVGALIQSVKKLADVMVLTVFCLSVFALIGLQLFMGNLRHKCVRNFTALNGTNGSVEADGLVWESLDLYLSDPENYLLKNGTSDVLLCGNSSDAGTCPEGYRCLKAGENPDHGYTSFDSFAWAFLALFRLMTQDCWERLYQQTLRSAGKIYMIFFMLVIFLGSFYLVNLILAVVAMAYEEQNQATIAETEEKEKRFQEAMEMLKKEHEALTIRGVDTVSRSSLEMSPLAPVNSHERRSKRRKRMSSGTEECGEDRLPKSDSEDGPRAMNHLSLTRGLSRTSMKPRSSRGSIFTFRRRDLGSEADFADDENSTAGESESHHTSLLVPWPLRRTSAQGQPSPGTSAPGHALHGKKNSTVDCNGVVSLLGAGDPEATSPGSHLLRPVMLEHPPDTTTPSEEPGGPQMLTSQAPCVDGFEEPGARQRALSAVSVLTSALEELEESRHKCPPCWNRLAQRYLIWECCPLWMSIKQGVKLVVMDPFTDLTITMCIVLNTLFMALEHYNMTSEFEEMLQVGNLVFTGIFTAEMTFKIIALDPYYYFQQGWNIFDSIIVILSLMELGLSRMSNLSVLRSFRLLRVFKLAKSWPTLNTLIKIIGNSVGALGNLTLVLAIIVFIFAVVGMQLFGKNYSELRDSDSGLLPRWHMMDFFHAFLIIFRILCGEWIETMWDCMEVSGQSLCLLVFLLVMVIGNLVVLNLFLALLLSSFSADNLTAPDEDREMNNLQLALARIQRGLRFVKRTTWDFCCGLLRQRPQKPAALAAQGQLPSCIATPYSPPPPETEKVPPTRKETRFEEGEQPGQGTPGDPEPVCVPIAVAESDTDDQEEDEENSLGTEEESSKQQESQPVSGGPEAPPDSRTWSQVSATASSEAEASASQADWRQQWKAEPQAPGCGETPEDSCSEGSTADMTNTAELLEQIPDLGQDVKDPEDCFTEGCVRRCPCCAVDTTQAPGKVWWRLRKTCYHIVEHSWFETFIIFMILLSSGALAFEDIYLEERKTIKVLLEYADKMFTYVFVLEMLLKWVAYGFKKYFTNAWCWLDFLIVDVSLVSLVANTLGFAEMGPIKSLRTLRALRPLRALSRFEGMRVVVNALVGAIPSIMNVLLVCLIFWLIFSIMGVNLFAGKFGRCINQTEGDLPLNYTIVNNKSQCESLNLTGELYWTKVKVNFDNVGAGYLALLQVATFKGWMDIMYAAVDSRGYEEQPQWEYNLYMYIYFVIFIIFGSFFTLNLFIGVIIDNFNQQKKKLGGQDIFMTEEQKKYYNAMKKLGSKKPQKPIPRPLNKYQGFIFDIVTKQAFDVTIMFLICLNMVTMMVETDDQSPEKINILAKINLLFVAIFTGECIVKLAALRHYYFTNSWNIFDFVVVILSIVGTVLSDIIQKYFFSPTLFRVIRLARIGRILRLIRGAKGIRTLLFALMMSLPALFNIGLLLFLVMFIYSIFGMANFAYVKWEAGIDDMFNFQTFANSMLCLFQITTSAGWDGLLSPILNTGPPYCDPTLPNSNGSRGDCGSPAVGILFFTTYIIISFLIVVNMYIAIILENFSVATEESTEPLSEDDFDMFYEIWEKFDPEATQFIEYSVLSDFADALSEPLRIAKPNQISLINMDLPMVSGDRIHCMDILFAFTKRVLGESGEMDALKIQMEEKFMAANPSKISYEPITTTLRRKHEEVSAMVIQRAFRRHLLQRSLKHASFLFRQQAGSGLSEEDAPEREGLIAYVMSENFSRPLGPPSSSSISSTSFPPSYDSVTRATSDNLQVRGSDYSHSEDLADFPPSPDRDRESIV

With `CC(C)Oc1ccc(-c2cn3c(-c4ccc(OC(C)C)cc4)cnc3cc2C#N)cc1` [Example C52, 3,6-bis(4-isopropoxyphenyl)imidazo[1,2-a]pyridine-7-carbonitrile], the inhibition at 5 min, 5 uM in data set [1] is less than 50%.

For `COc1cc2ncc(-c3ccc(OC(C)C)cc3)n2cc1-c1ccc(OC(C)C)cc1` [Example C49, 7-methoxy-3,6-bis[4-(propan-2-yloxy)phenyl]imidazo[1,2-a]pyridine], the inhibition at 5 min, 5 uM in data set [1] was less than 50%.

With `CC(C)Oc1ccc(-c2cnc3ccc(-c4ccc(OC(C)C)c(F)c4)cn23)cc1` [Example C24, 6-[3-fluoro-4-(propan-2-yloxy)phenyl]-3-[4-(propan-2-yloxy)phenyl]imidazo[1,2-a]pyridine], the inhibition at 5 µM on human Nav1.6 (setting [4]) was less than 50%; on human Nav1.6 (setting [5]), more than 90%; on human Nav1.7 (setting [6]), less than 50%; at human Nav1.7 (setting [7]), 50 to 90%. In addition, the figures for the inhibition at 5 min, 5 µM in data set [2] and in data set [3] were less than 50% and more than 90%, respectively.

For the molecule `CC(C)Oc1ccc(-c2cnc3ccc(-c4ccc(C5(N)CC5)cc4)cn23)cc1` [Example C15, 1-(4-{3-[4-(propan-2-yloxy)phenyl]imidazo[1,2-a]pyridin-6-yl}phenyl)cyclopropan-1-amine], the inhibition at 5 min, 5 uM in data set [1] was less than 50%.

As to `Cc1cc2ncc(-c3ccc(C(C)(C)O)cc3)n2cc1-c1ccc(OC(C)C)cc1` [Example C56, 2-(4-(6-(4-isopropoxyphenyl)-7-methylimidazo[1,2-a]pyridin-3-yl)phenyl)propan-2-ol], the inhibition at 5 min, 5 uM in data set [1] was less than 50%.

As to `CC(C)Oc1ccc(-c2cnc3ccc(C(F)(F)F)cn23)cc1` [Example C61, 3-(4-isopropoxyphenyl)-6-(trifluoromethyl)imidazo[1,2-a]pyridine], the inhibition at 5 µM on human Nav1.8 (setting [8]), at human Nav1.8 (setting [9]), at human Nav1.6 (setting [4]) and at human Nav1.6 (setting [5]) was less than 50% each time.

On to `CC(C)Oc1ccc(-c2ccc3ncc(-c4ccc(OC(C)(C)C)nc4)n3c2)cc1` [Example C90, 3-(6-(tert-butoxy)pyridin-3-yl)-6-(4-isopropoxyphenyl)imidazo[1,2-a]pyridine], for which the inhibition at 5 µM at human Nav1.6 (setting [4]) was less than 50%; on human Nav1.6 (setting [5]), more than 90%; at human Nav1.7 (setting [6]) it was less than 50%; at human Nav1.7 (setting [7]) it was more than 90%. Moreover, the inhibition at 5 min, 5 µM in data set [2] was less than 50%; in data set [3], more than 90%.

For the molecule `COc1cc(OC)cc(-c2ccc3ncc(-c4ccc(OC(F)(F)F)cc4)n3c2)c1` [Example C58, 6-(3,5-dimethoxyphenyl)-3-(4-(trifluoromethoxy)phenyl)imidazo[1,2-a]pyridine], the inhibition at 5 µM at human Nav1.8 (setting [8]) and on human Nav1.8 (setting [9]) was 50 to 90% in each case. Further, the inhibition at 2.5 µM on human Nav1.6 (pulse 1 (tonic), read-out: percent inhibition hNav1.6, Pulse 1 (2.5 uM)) is less than 50%; on human Nav1.6 (pulse 2 (state-dependent), read-out: percent inhibition hNav1.6, Pulse 2 (2.5 uM)) it was more than 90%.

`CC(C)Oc1ccc(-c2cnc3ccc(-c4ccc(C(N)=O)cc4)cn23)cc1` [Example C16, 4-{3-[4-(propan-2-yloxy)phenyl]imidazo[1,2-a]pyridin-6-yl}benzamide]: the inhibition at 5 min, 5 uM in data set [1] is less than 50%.

Consider `CC(C)Oc1ccc(-c2ccc3ncc(-c4ccc(OC(F)F)cc4)n3c2)cc1` [Example C40, 3-[4-(difluoromethoxy)phenyl]-6-[4-(propan-2-yloxy)phenyl]imidazo[1,2a]pyridine], for which, in data set [1], the inhibition at 5 min, 5 uM was less than 50%.

Regarding `CC(C)Oc1ccc(-c2ccc3ncc(-c4cccc(OC(C)C)c4)n3c2)cc1` [Example C35, 3-[3-(propan-2-yloxy)phenyl]-6-[4-(propan-2-yloxy)phenyl]imidazo[1,2-a]pyridine], the inhibition at 5 min, 5 uM in data set [1] is more than 90%.

As to `Cc1cc(-c2cnc3ccc(-c4ccc(OC(C)C)cc4)cn23)cnc1OC(C)C` [Example C71, 3-(6-isopropoxy-5-methylpyridin-3-yl)-6-(4-isopropoxyphenyl)imidazo[1,2-a]pyridine], the inhibition at 5 µM at human Nav1.6 (setting [4]) was less than 50%; at human Nav1.6 (setting [5]), more than 90%; at human Nav1.7 (setting [6]), less than 50%; at human Nav1.7 (setting [7]) it was more than 90%. Further, the inhibition at 5 min, 5 µM was less than 50% in data set [2] and more than 90% in data set [3].

For `CC(C)Oc1ccc(-c2cnc3ccc(-c4cnn(C5CC5)c4)cn23)cc1` [Example C17, 1-cyclopropyl-4-{3-[4-(propan-2-yloxy)phenyl]imidazo[1,2-a]pyridin-6-yl}-1H-pyrazole], in data set [1], the inhibition at 5 min, 5 uM was less than 50%.

Consider `COc1cc(OC)cc(-c2cnc3ccc(-c4ccc(OC(F)(F)F)cc4)cn23)c1` [Example C59, 3-(3,5-dimethoxyphenyl)-6-(4-(trifluoromethoxy)phenyl)imidazo[1,2-a]pyridine], for which the inhibition at 5 µM on human Nav1.8 (setting [8]) and at human Nav1.8 (setting [9]) was less than 50% in each case.

For `CC(C)Oc1ccc(-c2cnc3ccc(-c4ccc(OC(F)F)cc4)cn23)cc1` [Example C4, 6-[4-(difluoromethoxy)phenyl]-3-[4-(propan-2-yloxy)phenyl]imidazo[1,2-a]pyridine], in data set [1], the inhibition at 5 min, 5 uM is more than 90%.

Regarding `FC(F)(F)Oc1ccc(-c2cnc3ccc(C(F)(F)F)cn23)cc1` [Example C60, 3-(4-(trifluoromethoxy)phenyl)-6-(trifluoromethyl)imidazo[1,2-a]pyridine], the inhibition at 5 µM at human Nav1.8 (setting [8]), on human Nav1.8 (setting [9]), at human Nav1.6 (setting [4]) and on human Nav1.6 (setting [5]) was less than 50% each time.

Turning to `CC(C)Oc1ccc(-c2ccc3ncc(-c4ccc(C(C)(C)C)cc4)n3c2)cc1` [Example C87, 3-(4-(tert-butyl)phenyl)-6-(4-isopropoxyphenyl)imidazo[1,2-a]pyridine], the inhibition at 5 µM on human Nav1.6 (setting [4]) was less than 50%; at human Nav1.6 (setting [5]) it was more than 90%; on human Nav1.7 (setting [6]) it was less than 50%; on human Nav1.7 (setting [7]), more than 90%. Moreover, the inhibition at 5 min, 5 µM in data set [2] was less than 50%; in data set [3] it was more than 90%.
